According to ChEMBL document CHEMBL4346705, “(±)-trans-Dihydronarciclasine and (±)-trans-dihydrolycoricidine analogues modified in their ring A: Evaluation of their anticancer activity and a SAR study” (2019):

Tests used:
Format in all cases: functional
U-251 = assay: Antiproliferative activity against human U251 cells assessed as cell viability at 10^-5 M incubated for 48 hrs by sulforhodamine B assay relative to control; settings: U-251, 48 h, read-out: Activity
SF-295 = assay: Antiproliferative activity against human SF295 cells assessed as cell viability at 10^-5 M incubated for 48 hrs by sulforhodamine B assay relative to control; settings: SF-295, 48 h, read-out: Activity
RPMI-8226 = assay: Antiproliferative activity against human RPMI8226 cells assessed as cell viability at 10^-5 M incubated for 48 hrs by sulforhodamine B assay relative to control; settings: RPMI-8226, 48 h, read-out: Activity
LOX IMVI = assay: Antiproliferative activity against human LOXIMVI cells assessed as cell viability at 10^-5 M incubated for 48 hrs by sulforhodamine B assay relative to control; settings: read-out: Activity
UACC-257 = assay: Antiproliferative activity against human UACC257 cells assessed as cell viability at 10^-5 M incubated for 48 hrs by sulforhodamine B assay relative to control; settings: UACC-257, 48 h, read-out: Activity
K562 = assay: Antiproliferative activity against human K562 cells assessed as cell viability at 10^-5 M incubated for 48 hrs by sulforhodamine B assay relative to control; settings: K562, 48 h, read-out: Activity
Hs-578T = assay: Antiproliferative activity against human Hs 578T cells assessed as cell viability at 10^-5 M incubated for 48 hrs by sulforhodamine B assay relative to control; settings: read-out: Activity
T47D = assay: Antiproliferative activity against human T47D cells assessed as cell viability at 10^-5 M incubated for 48 hrs by sulforhodamine B assay relative to control; settings: read-out: Activity
CAKI-1 = assay: Antiproliferative activity against human Caki1 cells assessed as cell viability at 10^-5 M incubated for 48 hrs by sulforhodamine B assay relative to control; settings: CAKI-1, 48 h, read-out: Activity
OVCAR-4 = assay: Antiproliferative activity against human OVCAR4 cells assessed as cell viability at 10^-5 M incubated for 48 hrs by sulforhodamine B assay relative to control; settings: OVCAR-4, 48 h, read-out: Activity
CCRF-CEM = assay: Antiproliferative activity against human CCRF-CEM cells assessed as cell viability at 10^-5 M incubated for 48 hrs by sulforhodamine B assay relative to control; settings: read-out: Activity
UO-31 = assay: Antiproliferative activity against human UO31 cells assessed as cell viability at 10^-5 M incubated for 48 hrs by sulforhodamine B assay relative to control; settings: UO-31, 48 h, read-out: Activity
OVCAR-8 = assay: Antiproliferative activity against human OVCAR8 cells assessed as cell viability at 10^-5 M incubated for 48 hrs by sulforhodamine B assay relative to control; settings: OVCAR-8, 48 h, read-out: Activity
NCI-H226 = assay: Antiproliferative activity against human NCI-H226 cells assessed as cell viability at 10^-5 M incubated for 48 hrs by sulforhodamine B assay relative to control; settings: NCI-H226, 48 h, read-out: Activity
TK-10 = assay: Antiproliferative activity against human TK10 cells assessed as cell viability at 10^-5 M incubated for 48 hrs by sulforhodamine B assay relative to control; settings: TK-10, 48 h, read-out: Activity
NCI-H522 = assay: Antiproliferative activity against human NCI-H522 cells assessed as cell viability at 10^-5 M incubated for 48 hrs by sulforhodamine B assay relative to control; settings: NCI-H522, 48 h, read-out: Activity
HCT-116 = assay: Antiproliferative activity against human HCT116 cells assessed as cell viability at 10^-5 M incubated for 48 hrs by sulforhodamine B assay relative to control; settings: HCT-116, 48 h, read-out: Activity
HOP-92 = assay: Antiproliferative activity against human HOP92 cells assessed as cell viability at 10^-5 M incubated for 48 hrs by sulforhodamine B assay relative to control; settings: HOP-92, 48 h, read-out: Activity
SK-MEL-2 = assay: Antiproliferative activity against human SK-MEL-2 cells assessed as cell viability at 10^-5 M incubated for 48 hrs by sulforhodamine B assay relative to control; settings: SK-MEL-2, 48 h, read-out: Activity
786-0 = assay: Antiproliferative activity against human 786-0 cells assessed as cell viability at 10^-5 M incubated for 48 hrs by sulforhodamine B assay relative to control; settings: 786-0, 48 h, read-out: Activity
IGROV-1 = assay: Antiproliferative activity against human IGROV1 cells assessed as cell viability at 10^-5 M incubated for 48 hrs by sulforhodamine B assay relative to control; settings: IGROV-1, 48 h, read-out: Activity
MCF7 = assay: Antiproliferative activity against human MCF7 cells assessed as cell viability at 10^-5 M incubated for 48 hrs by sulforhodamine B assay relative to control; settings: MCF7, 48 h, read-out: Activity
HT-29 = assay: Antiproliferative activity against human HT-29 cells assessed as cell viability at 10^-5 M incubated for 48 hrs by sulforhodamine B assay relative to control; settings: HT-29, 48 h, read-out: Activity
SF-539 = assay: Antiproliferative activity against human SF539 cells assessed as cell viability at 10^-5 M incubated for 48 hrs by sulforhodamine B assay relative to control; settings: SF-539, 48 h, read-out: Activity
SR = assay: Antiproliferative activity against human SR cells assessed as cell viability at 10^-5 M incubated for 48 hrs by sulforhodamine B assay relative to control; settings: read-out: Activity
NCI-H322M = assay: Antiproliferative activity against human NCI-H322M cells assessed as cell viability at 10^-5 M incubated for 48 hrs by sulforhodamine B assay relative to control; settings: read-out: Activity
ACHN = assay: Antiproliferative activity against human ACHN cells assessed as cell viability at 10^-5 M incubated for 48 hrs by sulforhodamine B assay relative to control; settings: read-out: Activity
SK-MEL-5 = assay: Antiproliferative activity against human SK-MEL-5 cells assessed as cell viability at 10^-5 M incubated for 48 hrs by sulforhodamine B assay relative to control; settings: SK-MEL-5, 48 h, read-out: Activity
SN12C = assay: Antiproliferative activity against human SN12C cells assessed as cell viability at 10^-5 M incubated for 48 hrs by sulforhodamine B assay relative to control; settings: read-out: Activity
MDA-MB-231 = assay: Antiproliferative activity against human MDA-MB-231 cells assessed as cell viability at 10^-5 M incubated for 48 hrs by sulforhodamine B assay relative to control; settings: MDA-MB-231, 48 h, read-out: Activity
NCI-H23 = assay: Antiproliferative activity against human NCI-H23 cells assessed as cell viability at 10^-5 M incubated for 48 hrs by sulforhodamine B assay relative to control; settings: NCI-H23, 48 h, read-out: Activity
EKVX = assay: Antiproliferative activity against human EKVX cells assessed as cell viability at 10^-5 M incubated for 48 hrs by sulforhodamine B assay relative to control; settings: read-out: Activity

CCCOc1cc2c(cc1OCC)C1CC(O)C(O)C(O)C1NC2=O (racemic)
viability at 10 µM (U-251): 98.5% | viability at 10 µM (SF-295): 102% | viability at 10 µM (RPMI-8226): 104% | viability at 10 µM (LOX IMVI): 96.7% | viability at 10 µM (UACC-257): 104% | viability at 10 µM (K562): 105% | viability at 10 µM (Hs-578T): 96.9% | viability at 10 µM (T47D): 105% | viability at 10 µM (CAKI-1): 95.9% | viability at 10 µM (OVCAR-4): 107% | viability at 10 µM (CCRF-CEM): 107% | viability at 10 µM (UO-31): 88.9% | viability at 10 µM (OVCAR-8): 104% | viability at 10 µM (NCI-H226): 99.6% | viability at 10 µM (TK-10): 99% | viability at 10 µM (NCI-H522): 96.7% | viability at 10 µM (HCT-116): 101% | viability at 10 µM (HOP-92): 110% | viability at 10 µM (SK-MEL-2): 105% | viability at 10 µM (786-0): 101% | viability at 10 µM (IGROV-1): 103% | viability at 10 µM (MCF7): 99% | viability at 10 µM (HT-29): 107% | viability at 10 µM (SF-539): 99.2% | viability at 10 µM (SR): 116% | viability at 10 µM (NCI-H322M): 104% | viability at 10 µM (ACHN): 107% | viability at 10 µM (SK-MEL-5): 100% | viability at 10 µM (SN12C): 112% | viability at 10 µM (MDA-MB-231): 118% | viability at 10 µM (NCI-H23): 108% | viability at 10 µM (EKVX): 104%
